Tests used:
AMBEL (Ragweed, Common) = experiment: Postemergence herbicidal evaluation; format: in vivo, Ambrosia artemisifolia; settings: postemergence
Procedure, shortened: (§1)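 First, seedlings were raised for around two weeks. Next, test material in 50/50 acetone/water containing 0.5% TWEEN 20 was sprayed through a nozzle at 40 psi, equivalent to about 0.0156–0.500 kg/ha. Finally, after 4–5 weeks in the greenhouse, plants were rated 0–9.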

CASOB (Sicklepod) [1] = experiment: Postemergence herbicidal evaluation; format: in vivo, Cassia obtusifolia; settings: postemergence
Procedure, shortened: as §1

[2] = test system: CHEAL (Lambsquarters, Common); experiment: Postemergence herbicidal evaluation; format: in vivo, Chenopodium album; settings: postemergence
Procedure, shortened: as §1

GALAP (Galium) [3] = experiment: Postemergence herbicidal evaluation; format: in vivo, Galium aparine; settings: postemergence
Procedure, shortened: as §1

ECHCG (Barnyardgrass) = experiment: Postemergence herbicidal evaluation; format: in vivo, Echinochloa crus-galli; settings: postemergence
Procedure, shortened: as §1

SETVI (Foxtail, Green) = experiment: Postemergence herbicidal evaluation; format: in vivo, Setaria viridis; settings: postemergence
Procedure, shortened: as §1

[4] = test system: GLXMAW (Soybean, Williams); experiment: Postemergence herbicidal evaluation; format: in vivo, Glycine max, (L.) Merr. cv Williams; settings: postemergence
Procedure, shortened: as §1

ORYSAT (Rice, Tebonnet) = experiment: Postemergence herbicidal evaluation; format: in vivo, Oryza sativa, (L.) Tebonnet; settings: postemergence
Procedure, shortened: as §1

CASOB (Sicklepod) [5] = experiment: Preemergence herbicidal evaluation; format: in vivo, Cassia obtusifolia; settings: rated 4-5 weeks after treatment
Procedure, shortened: (§2)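 Each species is sown separately in potting soil over roughly an inch of soil before any emergence. The soil surface then receives an aqueous acetone spray delivering about 0.0156 to 0.500 kg/ha of compound. After four to five weeks, injury is scored from 0 to 9 relative to a control.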

GALAP (Galium) [6] = experiment: Preemergence herbicidal evaluation; format: in vivo, Galium aparine; settings: rated 4-5 weeks after treatment
Procedure, shortened: as §2

ZEAMX (Corn, Field) = experiment: Preemergence herbicidal evaluation; format: in vivo, Zea mays; settings: rated 4-5 weeks after treatment
Procedure, shortened: as §2

CYPIR (Rice Flatsedge) = experiment: Preemergence weed control under flooded paddy conditions; format: in vivo, Cyperus iria; settings: rated 3-4 weeks after treatment
Procedure, shortened: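 Ratings on a 0-9 visual scale cover stand, vigor, malformation, size, chlorosis and overall appearance relative to a control, taken three to four weeks post-treatment. Application was into flood water over freshly sown silt loam at roughly 0.0313 to 0.500 kg/ha.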

CYPSE (Flatsedge) [7] = experiment: as above; format: in vivo, Cyperus serotinus; settings: rated 3-4 weeks after treatment
Procedure, shortened: (§3)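 Greenhouse paddy assay. Acetone/water (50/50 v/v) solutions dosed into flood water, equivalent to about 0.0313 to 0.500 kg/ha active ingredient, over seeds planted 0.5 cm deep in silt loam. Score: 0-9 visual, based on stand, vigor, malformation, size and chlorosis, 3 to 4 weeks after treatment.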

[8] = test system: SAGPY (Arrowhead (Pygmaea)); experiment: as above; format: in vivo, Sagittaria pygmaea; settings: rated 3-4 weeks after treatment
Procedure, shortened: as §3

CYPSE (Flatsedge) [9] = experiment: Postemergence weed control under flooded paddy conditions; format: in vivo, Cyperus serotinus; settings: postemergence weeds, 3-4 weeks after treatment
Procedure, shortened: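 Injury ratings (0–9 scale covering stand, vigor, malformation, size, chlorosis and overall appearance versus control) were made three to four weeks after treatment. Test material, about 0.0313 to 0.500 kg/ha a.i. in 50/50 v/v aqueous/acetone, was added to flood water 1.5 to 3 cm deep over 3 to 5 cm weeds and 1.5 to 2.5 leaf rice.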

**Q.** What does the source list for `CCOC(=O)CN1C(=O)C2(CC2)SC1=Nc1cc(-n2c(=O)cc(C(F)(F)F)n(C)c2=O)c(F)cc1Cl` [Compound 15, Ethyl 5-{{2-chloro-5-[3,6-dihydro-3-methyl-2,6-dioxo-4-(trifluoromethyl)-1(2H)-pyrimidinyl]-4-fluorophenyl}imino}-7-oxo-4-thia-6-azaspiro[2.4]-heptane-6-acetate]?
**A.** AMBEL herbicidal rating (AMBEL (Ragweed, Common); rate 0.0156 kg/ha): 0.0; AMBEL herbicidal rating (AMBEL (Ragweed, Common); rate 0.0313 kg/ha): 0.0; AMBEL herbicidal rating (AMBEL (Ragweed, Common); rate 0.0625 kg/ha): 4.0; AMBEL herbicidal rating (AMBEL (Ragweed, Common); rate 0.1250 kg/ha): 9.0; CASOB herbicidal rating (CASOB (Sicklepod) [1]; rate 0.0156 kg/ha): 0.0; CASOB herbicidal rating (CASOB (Sicklepod) [1]; rate 0.0313 kg/ha): 0.0; CASOB herbicidal rating (CASOB (Sicklepod) [1]; rate 0.0625 kg/ha): 0.0; CASOB herbicidal rating (CASOB (Sicklepod) [1]; rate 0.1250 kg/ha): 4.0; CHEAL herbicidal rating ([2]; rate 0.0156 kg/ha): 3.0; CHEAL herbicidal rating ([2]; rate 0.0313 kg/ha): 3.0; CHEAL herbicidal rating ([2]; rate 0.0625 kg/ha): 9.0; CHEAL herbicidal rating ([2]; rate 0.1250 kg/ha): 9.0; GALAP herbicidal rating (GALAP (Galium) [3]; rate 0.0156 kg/ha): 0.0; GALAP herbicidal rating (GALAP (Galium) [3]; rate 0.0313 kg/ha): 0.0; GALAP herbicidal rating (GALAP (Galium) [3]; rate 0.0625 kg/ha): 3.0; GALAP herbicidal rating (GALAP (Galium) [3]; rate 0.1250 kg/ha): 6.0; ECHCG herbicidal rating (ECHCG (Barnyardgrass); rate 0.0156 kg/ha): 0.0; ECHCG herbicidal rating (ECHCG (Barnyardgrass); rate 0.0313 kg/ha): 0.0; ECHCG herbicidal rating (ECHCG (Barnyardgrass); rate 0.0625 kg/ha): 3.0; ECHCG herbicidal rating (ECHCG (Barnyardgrass); rate 0.1250 kg/ha): 9.0; SETVI herbicidal rating (SETVI (Foxtail, Green); rate 0.0156 kg/ha): 0.0; SETVI herbicidal rating (SETVI (Foxtail, Green); rate 0.0313 kg/ha): 0.0; SETVI herbicidal rating (SETVI (Foxtail, Green); rate 0.0625 kg/ha): 2.0; SETVI herbicidal rating (SETVI (Foxtail, Green); rate 0.1250 kg/ha): 7.0; GLXMAW herbicidal rating ([4]; rate 0.0156 kg/ha): 3.5; GLXMAW herbicidal rating ([4]; rate 0.0313 kg/ha): 4.0; GLXMAW herbicidal rating ([4]; rate 0.0625 kg/ha): 4.5; GLXMAW herbicidal rating ([4]; rate 0.1250 kg/ha): 5.5; ORYSAT herbicidal rating (ORYSAT (Rice, Tebonnet); rate 0.0156 kg/ha): 4.5; ORYSAT herbicidal rating (ORYSAT (Rice, Tebonnet); rate 0.0313 kg/ha): 5.0; ORYSAT herbicidal rating (ORYSAT (Rice, Tebonnet); rate 0.0625 kg/ha): 6.5; ORYSAT herbicidal rating (ORYSAT (Rice, Tebonnet); rate 0.1250 kg/ha): 6.5; CASOB preemergence herbicidal rating (CASOB (Sicklepod) [5]; rate 0.0156 kg/ha): 0.0; CASOB preemergence herbicidal rating (CASOB (Sicklepod) [5]; rate 0.0313 kg/ha): 0.5; CASOB preemergence herbicidal rating (CASOB (Sicklepod) [5]; rate 0.0625 kg/ha): 0.5; CASOB preemergence herbicidal rating (CASOB (Sicklepod) [5]; rate 0.1250 kg/ha): 2.0; CASOB preemergence herbicidal rating (CASOB (Sicklepod) [5]; rate 0.2500 kg/ha): 6.5; GALAP preemergence herbicidal rating (GALAP (Galium) [6]; rate 0.0156 kg/ha): 0.0; GALAP preemergence herbicidal rating (GALAP (Galium) [6]; rate 0.0313 kg/ha): 0.0; GALAP preemergence herbicidal rating (GALAP (Galium) [6]; rate 0.0625 kg/ha): 9.0; GALAP preemergence herbicidal rating (GALAP (Galium) [6]; rate 0.1250 kg/ha): 9.0; GALAP preemergence herbicidal rating (GALAP (Galium) [6]; rate 0.2500 kg/ha): 9.0; ZEAMX preemergence herbicidal rating (ZEAMX (Corn, Field); rate 0.0156 kg/ha): 1.0; ZEAMX preemergence herbicidal rating (ZEAMX (Corn, Field); rate 0.0313 kg/ha): 1.0; ZEAMX preemergence herbicidal rating (ZEAMX (Corn, Field); rate 0.0625 kg/ha): 2.5; ZEAMX preemergence herbicidal rating (ZEAMX (Corn, Field); rate 0.1250 kg/ha): 3.0; ZEAMX preemergence herbicidal rating (ZEAMX (Corn, Field); rate 0.2500 kg/ha): 5.0; Herbicidal rating CYPIR (CYPIR (Rice Flatsedge); 0.0313 kg/ha): 2.0; Herbicidal rating CYPIR (CYPIR (Rice Flatsedge); 0.0625 kg/ha): 2.0; Herbicidal rating CYPIR (CYPIR (Rice Flatsedge); 0.1250 kg/ha): 6.0; Herbicidal rating CYPIR (CYPIR (Rice Flatsedge); 0.2500 kg/ha): 7.0; Herbicidal rating CYPSE (CYPSE (Flatsedge) [7]; 0.0313 kg/ha): 0.0; Herbicidal rating CYPSE (CYPSE (Flatsedge) [7]; 0.0625 kg/ha): 0.0; Herbicidal rating CYPSE (CYPSE (Flatsedge) [7]; 0.1250 kg/ha): 0.0; Herbicidal rating CYPSE (CYPSE (Flatsedge) [7]; 0.2500 kg/ha): 0.0; Herbicidal rating SAGPY ([8]; 0.0313 kg/ha): 0.0; Herbicidal rating SAGPY ([8]; 0.0625 kg/ha): 0.0; Herbicidal rating SAGPY ([8]; 0.1250 kg/ha): 0.0; Herbicidal rating SAGPY ([8]; 0.2500 kg/ha): 0.0; Herbicidal rating CYPSE (CYPSE (Flatsedge) [9]; rate 0.0313 kg/ha): 0.0; Herbicidal rating CYPSE (CYPSE (Flatsedge) [9]; rate 0.0625 kg/ha): 0.0; Herbicidal rating CYPSE (CYPSE (Flatsedge) [9]; rate 0.1250 kg/ha): 0.0; Herbicidal rating CYPSE (CYPSE (Flatsedge) [9]; rate 0.2500 kg/ha): 0.0

Reference: patent US20020137929A1, “1 - (3-heterocyclylphenyl) isothiourea, -isourea, -guanidine and -amidine herbicidal agents” (Intellectual Property Department, BASF Aktiengesellschaft, priority 1998, published 2002)
